The source of these data is patent publication US20090285791A1, “Regenerating and enhancing development of muscle tissue” (Sbarro Health Research Organization, Inc., priority 2008, published 2009).

The subject of one test is C2C12 cells. Put plainly: C2C12 myoblast differentiation in the presence of kinase inhibitor DRB. The settings on record: C2C12 induced to differentiate. It is filed as cell-based, mouse. The procedure: C2C12 cells were grown in DMEM supplemented with 20% FBS (GM) or with 2% HS (DM).
Immunoprecipitations were performed with anti-MyoD antibody (Santa Cruz, Calif.) followed by the addition of protein A-sepharose. Beads were extensively washed and loading buffer without β-mercaptoethanol was added at 4° C. to work in non-denaturing conditions. Samples were resolved in PAA-Gels and transferred to a Hybond-ECL nitrocellulose (Amersham, IL). The blots were blocked with TBST containing 5% non-fat dry milk. Antibodies specific for cdk9, myogenin, MHC, RNAPolII, P-Serine2-CTD, Desmin and tubulin were used as described in Simone et al., 2002; Giacinti et al., 2006. Anti-rabbit and anti-mouse peroxidase conjugated and ECL detection system (Amersham, IL) were used for detection.
Since cdk9-55 activity, as well as cdk9-42 activity (Shore et al., Gene 307, 175-182, 2003; Liu and Herman, J. Cell. Physiol. 203, 251-260, 2005), could be inhibited by pharmacological blockade, C2C12 cells were induced to differentiate with the kinase specific inhibitor DRB.

Another test deals with cdk9-55 (Homo sapiens, UniProt P50750). To be noted: Shore et al. 2003; Liu and Herman 2005; cited from earlier work.
cdk9-55, sequence (P50750 1-489 isoform P50750-2): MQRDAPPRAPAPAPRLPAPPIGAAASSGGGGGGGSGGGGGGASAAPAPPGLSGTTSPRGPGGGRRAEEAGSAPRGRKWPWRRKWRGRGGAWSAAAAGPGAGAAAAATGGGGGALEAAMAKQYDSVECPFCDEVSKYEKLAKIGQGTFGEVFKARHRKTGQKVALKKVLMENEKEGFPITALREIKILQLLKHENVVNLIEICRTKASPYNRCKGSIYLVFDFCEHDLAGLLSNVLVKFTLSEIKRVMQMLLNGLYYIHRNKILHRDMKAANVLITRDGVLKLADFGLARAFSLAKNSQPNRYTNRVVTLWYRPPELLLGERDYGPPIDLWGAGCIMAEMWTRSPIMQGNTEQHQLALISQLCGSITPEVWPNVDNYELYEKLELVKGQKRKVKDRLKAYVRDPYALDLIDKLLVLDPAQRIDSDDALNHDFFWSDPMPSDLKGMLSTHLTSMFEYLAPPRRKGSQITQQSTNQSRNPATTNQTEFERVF
cdk9-55, sequence (O60563 whole entry partner): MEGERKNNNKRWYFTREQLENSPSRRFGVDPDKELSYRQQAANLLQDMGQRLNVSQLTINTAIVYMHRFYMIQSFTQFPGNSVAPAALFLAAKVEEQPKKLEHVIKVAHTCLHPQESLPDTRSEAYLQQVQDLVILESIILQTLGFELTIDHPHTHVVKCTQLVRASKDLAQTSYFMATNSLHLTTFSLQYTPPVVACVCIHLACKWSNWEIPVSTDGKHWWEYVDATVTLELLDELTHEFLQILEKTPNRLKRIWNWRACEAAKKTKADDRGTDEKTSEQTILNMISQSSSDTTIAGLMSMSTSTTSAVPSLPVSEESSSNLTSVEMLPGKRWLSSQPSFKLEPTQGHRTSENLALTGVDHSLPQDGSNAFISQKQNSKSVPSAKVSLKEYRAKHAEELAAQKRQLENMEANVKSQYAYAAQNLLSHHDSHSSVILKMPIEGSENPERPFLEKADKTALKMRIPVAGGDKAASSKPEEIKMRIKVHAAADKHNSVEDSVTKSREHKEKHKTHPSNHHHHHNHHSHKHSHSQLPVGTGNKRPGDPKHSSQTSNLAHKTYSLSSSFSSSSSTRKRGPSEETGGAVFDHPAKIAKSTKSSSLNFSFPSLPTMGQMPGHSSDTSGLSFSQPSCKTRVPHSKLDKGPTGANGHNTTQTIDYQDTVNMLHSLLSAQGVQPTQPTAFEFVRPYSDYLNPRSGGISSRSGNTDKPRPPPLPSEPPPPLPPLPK

In the case of `OC[C@H]1O[C@@H](n2cnc3cc(Cl)c(Cl)cc32)[C@H](O)[C@@H]1O` [DRB, 5,6-dichloro-1-β-d-ribofuranosylbenzimidazole], the multinucleated myotubes entry in the test with C2C12 cells (DRB 100 μM) is given as “absence of multinucleated myotubes”. In addition, in the test on C2C12 cells (DRB 100 μM (FIG. 1D, 1E)), the terminal differentiation result is listed as “failed to undergo terminal differentiation”. Further, the MHC levels entry with C2C12 cells (DRB 100 μM, immunoblot) is recorded as “low MHC levels”. In addition, the cdk9-55 kinase activity result at cdk9-55 is given as “specifically inhibited”.
